Data on 38 molecules can be found in ChEMBL document CHEMBL1221329, “Identification of a novel NR2B-selective NMDA receptor antagonist using a virtual screening approach” (Bioorg Med Chem Lett, 2010).

Each structure is given as a SMILES string. Bounds are passed on as bounds.

For test [1], the target named is T1, Glutamate NMDA receptor; GRIN1/GRIN2B (Homo sapiens, UniProt Q05586+Q13224). Put plainly: Antagonist activity at wild type NR1/NR2B receptor expressed in Xenopus oocytes assessed as ratio of residual current induced by agonist in presence of compound to residual current induced by agonist alone at 10 uM by two-electrode voltage-clamp method. The test is classed as functional, cell-based. The following applies: Oocyte. For orientation: Two-electrode voltage clamp holds a large cell at a set potential and records current.

Test [2] in a line: Antagonist activity at NR1/NR2B NTD truncated mutant receptor expressed in Xenopus oocytes assessed as ratio of residual current induced by agonist in presence of compound to residual current induced by agonist alone at 10 uM by two-electrode voltage-clamp method. The test is classed as functional, Oocyte.
Test [3] has as its target T2, Glutamate NMDA receptor; GRIN1/GRIN2A (Homo sapiens) (UniProt Q05586+Q12879). Put plainly: Antagonist activity at wild type NR1/NR2A receptor expressed in Xenopus oocytes assessed as ratio of residual current induced by agonist in presence of compound to residual current induced by agonist alone at 10 uM by two-electrode voltage-clamp method. The test is classed as functional, cell-based. The following applies: Oocyte.

Test [4] has as its target T1, Glutamate NMDA receptor; GRIN1/GRIN2B. Put plainly: Antagonist activity at wild type NR1/NR2B receptor expressed in Xenopus oocytes assessed as inhibition of agonist-induced current amplitude at 10 uM by two-electrode voltage-clamp method. The test is classed as functional, cell-based. As to conditions: Oocyte.
Test [5] shares this target. Put plainly: Ratio of compound IC50 to ifenprodil IC50 for wild type NR1/NR2B receptor by radioligand binding assay. The test is classed as protein-complex assay.
Test [6] has as its target T2, Glutamate NMDA receptor; GRIN1/GRIN2A (Homo sapiens). Put plainly: Antagonist activity at wild type NR1/NR2A receptor expressed in Xenopus oocytes assessed as inhibition of agonist-induced current amplitude at 10 uM by two-electrode voltage-clamp method. As to conditions: Oocyte. The test is classed as functional, cell-based.
Test [7] is described as follows: Antagonist activity at NR1/NR2B NTD truncated mutant receptor expressed in Xenopus oocytes assessed as inhibition of agonist-induced current amplitude at 10 uM by two-electrode voltage-clamp method. The test is classed as functional. The following applies: Xenopus laevis, Oocyte.
In test [8] the target is T1, Glutamate NMDA receptor; GRIN1/GRIN2B. Put plainly: Antagonist activity at wild type NR1/NR2B receptor expressed in Xenopus oocytes assessed as inhibition of agonist-induced current amplitude by two-electrode voltage-clamp method. The test is classed as functional, cell-based, Oocyte.
Test [9] shares this target. Put plainly: Ratio of compound IC50 to ifenprodil IC50 for wild type NR1/NR2B receptor expressed in Xenopus oocytes. The following applies: Oocyte. The test is classed as cell-based.

Take `O=C1N=C(N2CCN(Cc3ccccc3)CC2)S/C1=C\c1ccccc1O`: the Ratio in test [1] and in test [2] was 0.96 in each case.
Regarding `COc1cc(/C=C2\SC(Nc3cccc(Cl)c3Cl)=NC2=O)ccc1O`, the Ratio in test [3] was determined as 0.97; in [1], 0.925; in [2], 0.96. Besides, in test [4], the inhibition is under 20%.
In the case of `C(#Cc1ccccc1)CCN1CCC(Cc2ccccc2)CC1`, in test [5], the Ratio IC50 was 43.
The same measure, in the same setting: then `Oc1ccc(CCCCN2CCc3c([nH]c4ccccc34)C2)cc1`, with 5.
For `O=C1N=C(N2CCN(c3ccccc3)CC2)S/C1=C\c1ccc(O)cc1`, the Ratio in test [3] was found to be 0.88; in [1], 0.75; in [2] it was 0.96. The inhibition in test [6] came out at 25%. In test [7], the inhibition at 10 µM was determined as 25%.
For the molecule `N=C1/C(=C/c2ccc(O)cc2)C(=O)N=C2SC(Cc3ccc(Cl)cc3)=NN12`, the Ratio in [3] came out at 0.99; in [1] it was 0.9; in test [2], 0.97. In addition, the inhibition in test [4] was under 20%.
Regarding `Nc1ccc(C#CCCN2CCC(Cc3ccccc3)CC2)cc1`, in test [5], the Ratio IC50 stood at 4.
Regarding `Oc1nc2cc(C#CCN3CCC(=Cc4ccc(F)cc4)CC3)ccc2[nH]1`, in test [5], the Ratio IC50 is 2.5.
Consider `O=c1[nH]c2cc([S+]([O-])CCN3CCC(Cc4ccc(F)cc4)CC3)ccc2o1` (stereo unspecified), for which the Ratio IC50 in test [5] is 0.03.
As to `O=C1N=C(N2CCN(c3ccccc3)CC2)S/C1=C/c1ccc(O)cc1`, the Ratio in test [1] turned out to be 0.74; in test [2], 0.96.
For the molecule `C(#Cc1ccc2[nH]ccc2c1)CN1CCC(=Cc2ccccc2)CC1`, the Ratio IC50 in test [5] stood at 140.
Consider `COc1cc(/C=C2\SC(N3CCN(c4ccc(C)cc4)CC3)=NC2=O)ccc1O`, for which the Ratio amounted to 0.95 in test [1] and 0.97 in [2].
Regarding `Oc1nc2cc(C#CCN3CCC(Cc4ccc(F)cc4)CC3)c[nH]c-2n1`, in [5], the Ratio IC50 is 0.03.
The same measure, in the same setting: then `Cc1nnc(SCCCN2CCC(Cc3ccccc3)CC2)s1`, with 58.
Still for that read-out and setting: then `Oc1ccc2c(c1)OC[C@@H](N1CCC(O)(c3ccccc3)CC1)[C@H]2O`, with 11; and `O=c1[nH]c2ncc(C#CCN3CCC(Cc4ccccc4)CC3)cc2o1`, with 0.45.
Turning to `O=C1N=C(N2CCN(Cc3ccccc3)CC2)S/C1=C\c1ccc(O)cc1O`, the Ratio came to 0.92 in [3], 0.18 in test [1] and 0.92 in [2]. For the same molecule, the inhibition in [6] is 6%. The IC50 in [8] is 1650 nM. Besides, the inhibition at 10 µM in test [7] turned out to be 6%.
As to `Cn1c(O)nc2cc(C#CCN3CCC(Cc4ccccc4)CC3)ccc21`, the Ratio IC50 in test [5] worked out at 560.
For `COc1cc(/C=C2/SC(N3CCN(Cc4ccccc4)CC3)=NC2=O)ccc1O`, the Ratio stood at 0.61 in test [1] and 0.97 in [2]. Also, in [8], the IC50 worked out at 11000 nM.
As to `Oc1nc2cc(C#CCN3CCC(Cc4ccccc4)CC3)ccc2[nH]1`, the Ratio IC50 in test [5] turned out to be 0.048.
Same read-out and setting: then `O=C1CNC(=O)N1CCCN1CCC(Cc2ccccc2)CC1`, with 250.
Regarding `Nc1ccc(N2CCN(Cc3ccccc3Cl)CC2)cc1`, the Ratio in test [3] turned out to be 0.97; in [1] it was 0.98; in test [2], 0.98. The inhibition in test [4] was under 20%.
Turning to `CC(=O)Nc1ccc2c(c1)CN(Cc1ccc(Cl)cc1)CO2`, the Ratio in [3] came out at 0.77; in test [1], 0.83; in [2], 0.88. The inhibition in test [4] is under 20%.
As for `C[C@@H](CN1CCC(Cc2ccccc2)CC1)[C@@H](O)c1ccc(O)cc1`, the Ratio IC50 in test [5] was 0.3.
The same measure, in the same setting: to `O=C1CNC(=O)N1CCCCCN1CCC(Cc2ccccc2)CC1` belongs 440.
For the molecule `O=C1N=C(N2CCN(Cc3ccccc3)CC2)S/C1=C/c1ccc(O)cc1`, the Ratio came out at 0.9 in test [3], 0.15 in [1] and 0.96 in test [2]. Moreover, the inhibition in [6] is 6%. Moreover, the IC50 in test [8] was 1800 nM. For the same molecule, in test [7], the inhibition at 10 µM was 6%.
`O=C(CN1CCc2[nH]c3ccccc3c2C1)c1c[nH]c2ccccc12`: the Ratio came to 0.96 in test [3], 0.9 in [1] and 0.94 in [2]. In addition, in [4], the inhibition is under 20%.
For the molecule `COc1cc(/C=C2\SC(N3CCN(c4cccc(C)c4)CC3)=NC2=O)ccc1O`, the values for the Ratio in test [1] and in test [2] were 0.95 and 0.96, respectively.
In the case of `O=C1N=C(N2CCN(c3ccc(F)cc3)CC2)S/C1=C\c1ccc(O)cc1`, the figures for the Ratio in test [1] and in test [2] were 0.75 and 0.96, respectively. Also, in [8], the IC50 amounted to 13000 nM.
`CCN(CC)CCCOC(=O)c1ccc(O)cc1O`: the Ratio in test [3] came out at 0.97; in [1], 0.94; in test [2] it was 0.97. Moreover, the inhibition in test [4] is under 20%.
For the molecule `O=C1N=C(N2CCN(Cc3ccccc3)CC2)S/C1=C\c1ccccc1`, the Ratio in test [1] was 0.95; in test [2], 0.97.
`O=C1N=C(N2CCN(Cc3ccccc3)CC2)S/C1=C\c1ccc(O)cc1`: the results for the Ratio in test [3], in test [1] and in test [2] were 0.94, 0.22 and 0.96, respectively. Also, the inhibition in [6] worked out at 4%; in test [4], 0.92%. The Ratio IC50 in test [9] was found to be 10. In addition, the IC50 in test [8] was determined as 2700 nM. The inhibition at 10 µM in test [7] is 4%.
Consider `COc1cc(CN2CCN(Cc3cccc(C)c3)CC2)cc(OC)c1O`, for which the Ratio in [3] amounted to 0.98; in [1], 0.96; in [2], 0.97. Besides, the inhibition in test [4] was under 20%.
Take `CC(=O)Nc1ccc(N2C(=O)C[C@@H](N3CCc4[nH]c5ccccc5c4C3)C2=O)cc1`: the Ratio in test [3] was 0.98; in test [1], 0.97; in test [2] it was 0.98. The inhibition in test [4] is under 20%.
Regarding `COc1cc(/C=C2\SC(N3CCN(c4ccc(C)c(Cl)c4)CC3)=NC2=O)ccc1O`, the Ratio amounted to 0.9 in test [1] and 0.97 in test [2].
As for `Oc1ccc2[nH]c3c(c2c1)CN(CCCCc1ccccc1)CC3`, the Ratio IC50 in [5] came to 0.45.
In the case of `CCN1CCN(C2=NC(=O)/C(=C/c3ccc(O)cc3)S2)CC1`, the figures for the Ratio in [1] and in test [2] were 0.93 and 0.96, respectively.
As for `O=C1N=C(N2CCN(c3cccc(Cl)c3)CC2)S/C1=C\c1ccc(O)cc1`, the Ratio in [3] was 0.9; in test [1] it was 0.94; in test [2] it was 0.92.

For orientation: inhibition means the percentage by which the read-out fell short of the control. Broadly, the IC50 is the concentration needed to halve the response being measured.
